Data published in PubChem BioAssay AID2060496 (Molecular Pharmacology Branch, DTP, NCI, 2025).

System: 276233-004-R-J1-PDC complex spheroid viability
Assay: Anticancer human tumor 276233-004-R-J1-PDC patient-derived colon adenocarcinoma cell line growth inhibition [GQUAD]
Settings: for IC50: curve of first compound; for viability, T/C: stronger effect = lower value
In short: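 Tumor cells were grown as complex spheroids with HUVEC endothelial cells and mesenchymal stem cells as stroma. G-quadruplex stabilizers were combined with targeted agents over half-log dilutions from near the clinical Cmax, or from 10 microM.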

[1] = second compound 0.0316 µM, first compound 0.0316 µM
[2] = second compound 0.0316 µM, first compound 0.1 µM
[3] = second compound 0.0316 µM, first compound 0.316 µM
[4] = second compound 0.0316 µM, first compound 1 µM
[5] = second compound 0.0316 µM, first compound 3.16 µM
[6] = second compound 0.0316 µM, first compound 10 µM
[7] = second compound 0.1 µM, first compound 0.0316 µM
[8] = second compound 0.1 µM, first compound 0.1 µM
[9] = second compound 0.1 µM, first compound 0.316 µM
[10] = second compound 0.1 µM, first compound 1 µM
[11] = second compound 0.1 µM, first compound 3.16 µM
[12] = second compound 0.1 µM, first compound 10 µM
[13] = second compound 0.316 µM, first compound 0.0316 µM
[14] = second compound 0.316 µM, first compound 0.1 µM
[15] = second compound 0.316 µM, first compound 0.316 µM
[16] = second compound 0.316 µM, first compound 1 µM
[17] = second compound 0.316 µM, first compound 3.16 µM
[18] = second compound 0.316 µM, first compound 10 µM
[19] = second compound 1 µM, first compound 0.0316 µM
[20] = second compound 1 µM, first compound 0.1 µM
[21] = second compound 1 µM, first compound 0.316 µM
[22] = second compound 1 µM, first compound 1 µM
[23] = second compound 1 µM, first compound 3.16 µM
[24] = second compound 1 µM, first compound 10 µM
[25] = second compound 3.16 µM, first compound 0.0316 µM
[26] = second compound 3.16 µM, first compound 0.1 µM
[27] = second compound 3.16 µM, first compound 0.316 µM
[28] = second compound 3.16 µM, first compound 1 µM
[29] = second compound 3.16 µM, first compound 3.16 µM
[30] = second compound 3.16 µM, first compound 10 µM
[31] = second compound 10 µM, first compound 0.0316 µM
[32] = second compound 10 µM, first compound 0.1 µM
[33] = second compound 10 µM, first compound 0.316 µM
[34] = second compound 10 µM, first compound 1 µM
[35] = second compound 10 µM, first compound 3.16 µM
[36] = second compound 10 µM, first compound 10 µM
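Also: spheroids exposed to drugs for seven days.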
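For viability, T/C in this document: 100% = DMSO vehicle control viability.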

Structure (SMILES): C=CC(=O)N1CCN(c2nc(=O)n(-c3c(C)ccnc3C(C)C)c3nc(-c4c(O)cccc4F)c(F)cc23)C(C)C1 (stereo unspecified) + CN(C)c1ccc(Nc2c3ccc(NC(=O)CCN4CCCC4)cc3nc3cc(NC(=O)CCN4CCCC4)ccc23)cc1
- IC50 (second compound 0.0316 µM): > 10 µM
- IC50 (second compound 0.1 µM): > 10 µM
- IC50 (second compound 0.316 µM): > 10 µM
- IC50 (second compound 1 µM): > 10 µM
- IC50 (second compound 3.16 µM): < 0.0316 µM
- IC50 (second compound 10 µM): > 10 µM
- viability, T/C [1]: 93.1%
- viability, T/C [2]: 90.4%
- viability, T/C [3]: 106%
- viability, T/C [4]: 97.6%
- viability, T/C [5]: 102%
- viability, T/C [6]: 87.6%
- viability, T/C [7]: 90%
- viability, T/C [8]: 75.8%
- viability, T/C [9]: 80.6%
- viability, T/C [10]: 73.9%
- viability, T/C [11]: 77%
- viability, T/C [12]: 75.2%
- viability, T/C [13]: 67.9%
- viability, T/C [14]: 82.1%
- viability, T/C [15]: 68.6%
- viability, T/C [16]: 58.5%
- viability, T/C [17]: 71%
- viability, T/C [18]: 68.9%
- viability, T/C [19]: 55.4%
- viability, T/C [20]: 47.8%
- viability, T/C [21]: 62.2%
- viability, T/C [22]: 56.6%
- viability, T/C [23]: 59.1%
- viability, T/C [24]: 63.6%
- viability, T/C [25]: 48.2%
- viability, T/C [26]: 52.1%
- viability, T/C [27]: 42.3%
- viability, T/C [28]: 44.6%
- viability, T/C [29]: 55.8%
- viability, T/C [30]: 45.3%
- viability, T/C [31]: 50.6%
- viability, T/C [32]: 55.1%
- viability, T/C [33]: 43.5%
- viability, T/C [34]: 53.5%
- viability, T/C [35]: 62.6%
- viability, T/C [36]: 47.8%

Structure (SMILES): CCc1c2c(nc3ccc(O)cc13)-c1cc3c(c(=O)n1C2)COC(=O)[C@]3(O)CC + CN(C)c1ccc(Nc2c3ccc(NC(=O)CCN4CCCC4)cc3nc3cc(NC(=O)CCN4CCCC4)ccc23)cc1
- IC50 (second compound 0.0316 µM): > 0.316 µM
- IC50 (second compound 0.1 µM): > 0.316 µM
- IC50 (second compound 0.316 µM): > 0.316 µM
- IC50 (second compound 1 µM): > 0.316 µM
- IC50 (second compound 3.16 µM): < 0.000999 µM
- IC50 (second compound 10 µM): < 0.000999 µM
- viability, T/C (second compound 0.0316 µM, first compound 0.000999 µM): 102%
- viability, T/C (second compound 0.0316 µM, first compound 0.00316 µM): 104%
- viability, T/C (second compound 0.0316 µM, first compound 0.00999 µM): 104%
- viability, T/C [1]: 105%
- viability, T/C (second compound 0.0316 µM, first compound 0.0999 µM): 108%
- viability, T/C [3]: 117%
- viability, T/C (second compound 0.1 µM, first compound 0.000999 µM): 94.3%
- viability, T/C (second compound 0.1 µM, first compound 0.00316 µM): 84.9%
- viability, T/C (second compound 0.1 µM, first compound 0.00999 µM): 101%
- viability, T/C [7]: 107%
- viability, T/C (second compound 0.1 µM, first compound 0.0999 µM): 99.7%
- viability, T/C [9]: 117%
- viability, T/C (second compound 0.316 µM, first compound 0.000999 µM): 60.1%
- viability, T/C (second compound 0.316 µM, first compound 0.00316 µM): 71.1%
- viability, T/C (second compound 0.316 µM, first compound 0.00999 µM): 75.7%
- viability, T/C [13]: 76.4%
- viability, T/C (second compound 0.316 µM, first compound 0.0999 µM): 79.5%
- viability, T/C [15]: 91.8%
- viability, T/C (second compound 1 µM, first compound 0.000999 µM): 60.3%
- viability, T/C (second compound 1 µM, first compound 0.00316 µM): 50.9%
- viability, T/C (second compound 1 µM, first compound 0.00999 µM): 67.2%
- viability, T/C [19]: 71.6%
- viability, T/C (second compound 1 µM, first compound 0.0999 µM): 70%
- viability, T/C [21]: 89.7%
- viability, T/C (second compound 3.16 µM, first compound 0.000999 µM): 50.8%
- viability, T/C (second compound 3.16 µM, first compound 0.00316 µM): 46.4%
- viability, T/C (second compound 3.16 µM, first compound 0.00999 µM): 72.6%
- viability, T/C [25]: 70.8%
- viability, T/C (second compound 3.16 µM, first compound 0.0999 µM): 75.3%
- viability, T/C [27]: 70.4%
- viability, T/C (second compound 10 µM, first compound 0.000999 µM): 44%
- viability, T/C (second compound 10 µM, first compound 0.00316 µM): 55.1%
- viability, T/C (second compound 10 µM, first compound 0.00999 µM): 59.1%
- viability, T/C [31]: 65.9%
- viability, T/C (second compound 10 µM, first compound 0.0999 µM): 78.5%
- viability, T/C [33]: 76.4%

Structure (SMILES): COc1cc(C2c3cc4c(cc3C(OC3OC5COC(C)OC5C(O)C3O)C3COC(=O)C23)OCO4)cc(OC)c1O (stereo unspecified) + CN(C)c1ccc(Nc2c3ccc(NC(=O)CCN4CCCC4)cc3nc3cc(NC(=O)CCN4CCCC4)ccc23)cc1
- IC50 (second compound 0.0316 µM): > 10 µM
- IC50 (second compound 0.1 µM): > 10 µM
- IC50 (second compound 0.316 µM): > 10 µM
- IC50 (second compound 1 µM): > 10 µM
- IC50 (second compound 3.16 µM): > 10 µM
- IC50 (second compound 10 µM): 3.31 µM
- viability, T/C [1]: 95.7%
- viability, T/C [2]: 106%
- viability, T/C [3]: 98.9%
- viability, T/C [4]: 90.4%
- viability, T/C [5]: 87%
- viability, T/C [6]: 98.8%
- viability, T/C [7]: 75.8%
- viability, T/C [8]: 88.2%
- viability, T/C [9]: 92.7%
- viability, T/C [10]: 82.3%
- viability, T/C [11]: 77.7%
- viability, T/C [12]: 78.4%
- viability, T/C [13]: 60.1%
- viability, T/C [14]: 69%
- viability, T/C [15]: 55.5%
- viability, T/C [16]: 69.4%
- viability, T/C [17]: 61.2%
- viability, T/C [18]: 61.3%
- viability, T/C [19]: 56.6%
- viability, T/C [20]: 45.2%
- viability, T/C [21]: 58.5%
- viability, T/C [22]: 62.3%
- viability, T/C [23]: 55.4%
- viability, T/C [24]: 55%
- viability, T/C [25]: 54.8%
- viability, T/C [26]: 49%
- viability, T/C [27]: 52.2%
- viability, T/C [28]: 56.5%
- viability, T/C [29]: 61.5%
- viability, T/C [30]: 54.6%
- viability, T/C [31]: 46.8%
- viability, T/C [32]: 59.5%
- viability, T/C [33]: 47.3%
- viability, T/C [34]: 57.4%
- viability, T/C [35]: 45.7%
- viability, T/C [36]: 48.5%
